Reference: patent US20180312534A1, “FLUORESCENT ANTICANCER PLATINUM DRUGS” (INVICTUS ONCOLOGY PVT. LTD., priority 2015, published 2018)

Tested on: A549
Assay: Cellular uptake of fluorescent compounds (fluorescence microscopy)
Assay type: cell-based
Details: A549, post 5-hours incubation
Protocol: The intracellular localization of molecules was visualized by fluorescence microscopy. Cells were seeded on cover slips to a confluency of 40% and grown for 24 hours in a humidified chamber. Cells were treated with fluorescent compounds and incubated for 2, 5 and 24 hours. Following incubation, cells were washed with PBS, fixed in 4% paraformaldehyde and observed under epifluorescence microscope. Images were recorded in phase contrast and fluorescent channels. Cells treated with vehicle and/or ligand were considered as control and microscopically evaluated.

SMILES: NCC(N)C(=O)OCCNc1ccc2cccc3c2c1C(=O)C=C3 (stereo not shown) [Im-02]
- intracellular localization of fluorescence: punctate dots in the cytoplasm or along cell margins
